From patent US9757477B2, “Imaging brown adipose tissue with curcumin derivatives” (The General Hospital Corporation, priority 2013, dated 2017)
Where “and” joins values, the source holds several entries; their conditions need not be identical. Identical values can stand only once. Entries after “also recorded” stand apart in the source; their conditions may differ.

Tests used:
[1] = Excitation and emission wavelengths of BAT imaging agents; format: physicochemical
Protocol: In some embodiments, the methods include irradiating the mammal with light of the appropriate wavelength to excite the BAT imaging agent, and detecting emissions therefrom.
Fluorescent dyes were purchased from Exciton Inc. (Dayton, Ohio) and Invitrogen. The reagents used for the synthesis were purchased from Aldrich and used without further purification. Column chromatography was performed on silica gel (SiliCycle Inc., 60 Å, […]) slurry packed into glass columns. 1H, 13C NMR spectra were recorded at 500 MHz and 125 MHz respectively, and reported in ppm downfield from tetramethylsilane. Fluorescence studies were carried out using a F-4500 Fluorescence Spectrophotometer (Hitachi). Mass spectra were obtained at Harvard University, Department of Chemistry Instrumentation Facility. Microscopic images were acquired with Nikon Eclipse 50i microscope. In vivo NIR imaging was performed using the IVIS® Spectrum animal imaging system (Caliper LifeSciences, Perkin Elmer, Hopkinton, Mass.), and data analysis was conducted using LivingImage® 4.2.1 software.

[2] = tested on: interscapular BAT; assay: Re-testing of hits with stepwise dissection and NIR imaging; format: in vivo, mice; details: stepwise dissection
Protocol: Like protein/cell-based screening, hit re-testing experiments were conducted to validate the reliability of this approach. CRANAD-2, -3, LDS 722 and Rhodamine 640 were subjected to re-testing by repeating the above imaging procedure. Images were acquired one hour after probe injection.
Next, stepwise dissection and imaging were performed to track the source of the fluorescence contrast at the interscapular site. Skin and the thin WAT layer that covers BAT were first removed, and then BAT was dissected, and NIR images were captured at each step. […] The signal contribution from BAT (R(BAT)) was roughly estimated using the ratio of fluorescence signals acquired after (F(BAT)) and before (F(intact)) the first step dissection of skin and WAT.

[3] = tested on: interscapular BAT; assay: Top-down whole-organism NIR fluorescence screening of dyes (ROI1/ROI2 contrast); format: in vivo, nude mice; details: for visible contrast around the interscapular BAT area: in vivo NIR images; for Ratio No 1 (ROI1/ROI2 average fluorescence intensity) / Ratio No 2 (ROI1/ROI2 average fluorescence intensity) / Ratio No 3 (ROI1/ROI2 average fluorescence intensity) / Ratio AVERAGE (mean ratio ROI1/ROI2): nude mice, one hour post-injection; for Ratio No 1 (ROI1/ROI2 average fluorescence intensity) / Ratio No 2 (ROI1/ROI2 average fluorescence intensity) / Ratio No 3 (ROI1/ROI2 average fluorescence intensity): 10 μg/mouse i.v.; for Ratio No 1 (ROI1/ROI2 average fluorescence intensity): first excitation/emission filter pair; for Ratio No 2 (ROI1/ROI2 average fluorescence intensity): second excitation/emission filter pair; for Ratio No 3 (ROI1/ROI2 average fluorescence intensity): third excitation/emission filter pair; for Ratio AVERAGE (mean ratio ROI1/ROI2): i.v., mean of three filter pairs, hit threshold >1.10
Protocol: 38 fluorescent dyes from commercial resources and from the inventors' laboratory were screened. Dyes with excitation range of 550-745 nm, emission range of 600-840 nm, and with molecular weight of less than 700 Da (except Cy5.5) (representative dyes are listed in FIG. 1d and the full list is shown in Table 2). Their hydrophobicities were not determined. The library was screened by intravenous tail injection of compounds into nude mice (10μg/mouse). Each dye was imaged with three optimized excitation/emission filter-pairs, and images at one hour after i.v. injection were acquired.
Top-down whole organism screening was performed as follows. Nude mice (nu/nu COX7) were purchased from Massachusetts General Hospital and Balb/c mice were from Jackson Laboratory. All animal experimental procedures were approved by the Institutional Animal Care and Use Committee (IACUC) at Massachusetts General Hospital. Dye stock solutions were prepared in DMSO. The final injection solution (0.1 mg/ml) was freshly prepared in a mixed solution of 20% DMSO, 20% Cremophor EL and 60% saline. Nude mice (n=5) were injected with a 100 μL dye solution via tail vein. For each imaging session, mice were anesthetized with a mixture of oxygen and isoflurane for 5 minutes, and then positioned into the imaging chamber of IVIS® Spectrum in vivo pre-clinical imaging system. Images were acquired at one-hour post-injection using sequence imaging with three excitation/emission filter pairs for each dye.
Hits selection was performed as follows. Hits from cell- or protein-based screening are usually selected by setting certain threshold. In the case of the top-down imaging screening, two methods were used (threshold and visible contrast) to select hits. First, three images obtained with three excitation/emission pairs were selected for each dye. These ex/em pairs were selected from the closest excitation and emission wavelengths of the tested dyes. For instance, 605/660 nm, 605/680 nm, 640/680 nm were selected for image acquisition of Nile blue (625/660 nm). The quantification of contrast for each image was calculated as a ratio of two ROIs (region of interest). ROI1 reflected the average signal from interscapular BAT and ROI2 was the average signal of the area that included BAT and white adipose tissue (WAT) around the interscapular site (FIG. 1b, left). The averaged fluorescent signal of ROI was used instead of the total signal, because the total signal depends on the area of ROI, whereas the averaged signal reflects the density of signal. The ratio of ROI1/ROI2 could reflect the signal/noise ratio of the tested probe, and could also reflect the selectivity of the probe for BAT over WAT. For each dye, three ROI1/ROI2 ratios obtained with the three filter pairs were calculated. The mean of the ratios was used as the threshold. If the mean ratio was >1.10, the dye was selected as a potential positive hit (FIG. 1c). Since the contrast of a dye in the top-down screening is in the visible range, the visible contrast around the interscapular BAT area was also tested for the hits with the mean ratio of >1.10. If both mean ratio and the visible contrast were positive, then the hit was subjected to re-testing procedure to validate its reliability as described below.
Although CRANAD-2 and CRANAD-3 were able to provide certain contrast for BAT in vivo, their excitation and emission wavelengths were still shorter than required for an ideal NIR imaging probe (both excitation and emission >640 nm). […] To seek better probes, a sub-library was synthesized based on the structures of the lead probes CRANAD-2 and -3. CRANAD-6, -19, -22, -24, -26, -32 and -43 were synthesized and tested (images and chemical structures, excitation and emission spectra are shown in FIG. 9 a-e). […] However, the ROI1/ROI2 ratio of CRANAD-22 was not improved (FIG. 9c).

Emission λ [1] [nm]	Excitation λ [1] [nm]	Compound	selectivity for BAT (over WAT) [2]	visible contrast around the interscapular BAT area [3]	ROI1/ROI2 ratio compared with lead probe ([3]; sub-library probes, compared with CRANAD-2)	Ratio No 1 (ROI1/ROI2 average fluorescence intensity) [3]	Ratio No 2 (ROI1/ROI2 average fluorescence intensity) [3]	Ratio No 3 (ROI1/ROI2 average fluorescence intensity) [3]	Ratio AVERAGE (mean ratio ROI1/ROI2) [3]	fluorescence signal from BAT (before vs after BAT removal) [2]
750	620	CN(C)c1ccc(/C=C/C2=CC(/C=C/c3ccc(N(C)C)c4ccccc34)=[O+][B-](F)(F)O2)c2ccccc12 [CRANAD-6]								
637	587	F[B-]1(F)OC(/C=C/c2c(-c3ccccc3)[nH]c3ccccc23)=CC(/C=C/c2c(-c3ccccc3)[nH]c3ccccc23)=[O+]1 [CRANAD-26]								
700	640	CN(C)c1ccc(/C=C/C=C/C2=CC(/C=C/C=C/c3ccc(N(C)C)cc3)=[O+][B-](F)(F)O2)cc1 [CRANAD-43]	not significantly increased; also recorded: poor selectivity	best contrast	higher					
		N=c1cc2oc3cc(N)ccc3nc-2c2ccccc12 [Cresyl Violet]				9.56E−01	9.72E−01	1.02E+00	9.81E−01	
		CCN1/C(=C/C=C/C=C/c2oc3ccccc3[n+]2CC)Oc2ccccc21.[I-] [DODC]				1.08E+00	1.09E+00	1.10E+00	1.09E+00	
		CCN1/C(=C/C=C/C=C/C=C/c2oc3ccccc3[n+]2CC)Oc2ccccc21.[I-] [DOTC]				9.48E−01	9.44E−01	9.52E−01	9.48E−01	
		CN1C(=CC=CC=CC2=[N+](C)c3ccccc3C2(C)C)C(C)(C)c2ccccc21.[I-] [HIDC]				1.01E+00	1.01E+00	1.02E+00	1.01E+00	
		CN1C(=CC=CC=CC=CC2=[N+](C)c3ccccc3C2(C)C)C(C)(C)c2ccccc21.[I-] [HITC]				1.07E+00	1.02E+00	1.06E+00	1.05E+00	
		CC1(C)C(/C=C/C=C/C=C/C=C2\N(CCCCS(=O)(=O)[O-])c3ccc4ccccc4c3C2(C)C)=[N+](CCCCS(=O)(=O)[O-])c2ccc3ccccc3c21.[Na+] [IR125]				8.65E−01	9.76E−01	8.49E−01	8.97E−01	
		CN1/C(=C/C=C2\CCCC(/C=C/C3=[N+](C)c4ccc5ccccc5c4C3(C)C)=C2Cl)C(C)(C)c2c1ccc1ccccc21.Cc1ccc(S(=O)(=O)[O-])cc1 [IR813]				1.08E+00	9.91E−01	1.08E+00	1.05E+00	
		CC[n+]1ccccc1/C=C/C=C/c1ccc(N(C)C)cc1.[O-][Cl+3]([O-])([O-])[O-] [LDS698]				1.03E+00	1.06E+00	1.04E+00	1.04E+00	
		CC[n+]1ccc(C=CC=Cc2ccc(N(C)C)cc2)cc1.[O-][Cl+3]([O-])([O-])[O-] [LDS722]		weak contrast and no clear triangular contours		1.15E+00	1.14E+00	1.08E+00	1.13 and 1.13E+00	no significant fluorescent signal was from BAT
		CN(C)c1ccc(/C=C/C=C/C2=[N+](C)c3ccccc3C2(C)C)cc1.[O-][Cl+3]([O-])([O-])[O-] [LDS730]				1.03E+00	1.08E+00	1.09E+00	1.07E+00	
		CC[n+]1c(/C=C/C=C/c2ccc(N(C)C)cc2)ccc2cc(N(C)C)ccc21.[O-][Cl+3]([O-])([O-])[O-] [LDS751]				1.07E+00	1.05E+00	1.11E+00	1.08E+00	
		CC[n+]1ccc(/C=C/C=C/c2ccc(N(C)C)cc2)c2ccccc21.[O-][Cl+3]([O-])([O-])[O-] [LDS798]				1.00E+00	1.00E+00	9.88E−01	9.98E−01	
		CCN=c1cc2oc3c4c5c(cc3nc-2c2ccccc12)CCCN5CCC4 [OX750]				1.09E+00	1.09E+00	1.04E+00	1.07E+00	
		CC1=C(C)C(C)=[N+]2C1=C(C#N)c1c(C)c(C)c(C)n1[B-]2(F)F [Pyromethene650]				1.09E+00	1.07E+00	1.08E+00	1.08E+00	
		O=C(O)c1ccccc1C1=c2cc3c4c(c2Oc2c1cc1c5c2CCCN5CCC1)CCC[N+]=4CCC3.[Cl-] [Rhodamine640]		weak contrast and no clear triangular contours		1.15E+00	1.15E+00	1.15E+00	1.15 and 1.15E+00	no significant signals were from BAT
		CCN(CC)c1ccc2c(-c3ccccc3C(C)=O)c3ccc(=[N+](CC)CC)cc-3oc2c1 [RhodamineB]				1.01E+00	1.01E+00	9.54E−01	9.90E−01	
		Cy5.5				1.07E+00	1.07E+00	1.06E+00	1.07E+00	
		Sulforhodamine				8.51E−01	8.86E−01	9.21E−01	8.86E−01	
